Laboratory results from article PMC2424174, “Suppression of Tumor Growth and Angiogenesis by a Specific Antagonist of the Cell-Surface Expressed Nucleolin” (PLoS ONE, 2008).
Marks after values point to notes of the source that are not given here. One block for each molecule: values may come before it.

Experiments:
[1] = test system: MDA-MB-435 tumor-cell xenografts; test: MDA-MB-435 xenograft in nude mice; format: in vivo, human; conditions: 5-FU 40 mg/kg, intraperitoneal, 3 times/week, 8 weeks, n = 10
Method: Figure 8 HB-19 inhibits tumor growth in the nude mice. (A) HB-19 inhibits the growth of MDA-MB-231 tumor-cell xenografts. Cells (2×10^6) were injected subcutaneously into the right flank of female nude mice. Two weeks later, mice with a palpable tumor of approximately 40 mm^3 in volume were randomly separated into three groups (n = 5) and were given peritumoral injections 3 times/week of 0.1 ml PBS alone (Control), HB-19 (5 mg/kg), or Tamoxifen (Tmx) 10 mg/kg) for 6 weeks. (B) HB-19 inhibits the growth of MDA-MB-435 tumor-cell xenografts. Cells (1×10^6) were injected in the mammary fat pad of female nude mice. Two weeks later, mice with a palpable tumor were randomly separated into three groups (n = 10) and were given intraperitoneal injections 3 times/week of 0.1 ml PBS alone (Control), HB-19 (5 mg/kg), or 5-fluouracil (5-FU, 40 mg/kg) for 8 weeks. At the end of each experiment (in A and B), mice were sacrificed and the tumors were excised and weighed. The results are presented as the mean weight ±standard deviation (±S.D.) obtained from the number of mice in each group. (C, D) Inhibition of tumor development in mice treated by intraperitoneal (i.p.) and subcutaneous (s.c.) administration of HB-19. MDA-MB-231 tumor bearing mice in three groups (n = 10) were treated with HB-19 (10 mg/kg) by i.p. or s.c. injections, 3 times/week for 28 days. […]

[2] = test system: CD31 endothelial marker in tumors; test: Tumor vascularization, CD31 immunohistochemistry; format: in vivo, mouse; conditions: CD31 staining; HB-19 5 mg/kg or 5-FU 40 mg/kg, intraperitoneal, 8 weeks; compared to untreated tumors
Method: Figure 9 Reduced density of blood vessels in HB-19 treated tumor-bearing mice. Sections of tumors recovered from mice, untreated control and treated with either HB-19 or 5-FU (experiment described in Figure 8B) were stained with antibodies against the CD31 endothelial marker and analyzed by fluorescence microscopy. […] Angiogenesis was quantified by image analysis of CD31-labeled endothelial cells.
Immediately after surgical resection, tumors, were frozen in liquid nitrogen and fixed for 20 min in acetone at 4°C or fixed with 4% PFA for paraffin inclusion. The sections of 8 µm were re-hydrated and saturated in PBS containing 1% BSA and 2% normal goat serum. To visualize tumor endothelial cells, sections were incubated with a Rat anti-mouse CD31 monoclonal antibody (1∶50) in saturation buffer 1 hour at room temperature. After two washes in PBS, sections were incubated for 1 hour at room temperature with biotinylated goat anti-Rat IgG (1∶1000 dilution; Chemicon International Inc., Temecula, CA) in saturation buffer, followed by three washes in PBS and incubation with the avidin-biotinylated-alkaline phosphatase complex (Vector Laboratories). […] Angiogenesis was quantified by Image analysis of CD31-labeled endothelial cells. The EC density in each field was expressed as the ratio of EC area/total area examined ×100 (%). […]

[3] = Blood cell count in tumor bearing mice; format: in vivo, mouse; conditions: 3 times/week, 8 weeks
Method: (§1) Figure 8 HB-19 inhibits tumor growth in the nude mice. (A) HB-19 inhibits the growth of MDA-MB-231 tumor-cell xenografts. Cells (2×10^6) were injected subcutaneously into the right flank of female nude mice. Two weeks later, mice with a palpable tumor of approximately 40 mm^3 in volume were randomly separated into three groups (n = 5) and were given peritumoral injections 3 times/week of 0.1 ml PBS alone (Control), HB-19 (5 mg/kg), or Tamoxifen (Tmx) 10 mg/kg) for 6 weeks. (B) HB-19 inhibits the growth of MDA-MB-435 tumor-cell xenografts. Cells (1×10^6) were injected in the mammary fat pad of female nude mice. Two weeks later, mice with a palpable tumor were randomly separated into three groups (n = 10) and were given intraperitoneal injections 3 times/week of 0.1 ml PBS alone (Control), HB-19 (5 mg/kg), or 5-fluouracil (5-FU, 40 mg/kg) for 8 weeks. At the end of each experiment (in A and B), mice were sacrificed and the tumors were excised and weighed. The results are presented as the mean weight ±standard deviation (±S.D.) obtained from the number of mice in each group. (C, D) Inhibition of tumor development in mice treated by intraperitoneal (i.p.) and subcutaneous (s.c.) administration of HB-19. MDA-MB-231 tumor bearing mice in three groups (n = 10) were treated with HB-19 (10 mg/kg) by i.p. or s.c. injections, 3 times/week for 28 days. […] Statistical significance: *p<0.05, **p<0.01, ***p<0.001.
Blood samples were collected by cardiac puncture. Hematocrit level, white blood cells and platelets count were determined individually in whole blood anticoagulated with EDTA (1 mM) at room temperature. Blood cell count was analyzed with an automated flow cytometric blood cell counter (Cell-Dyn 3500, Abbott Laboratories, Rungis, France).

[4] = test system: MDA-MB-231 tumor-cell xenografts; test: MDA-MB-231 xenograft in nude mice; format: in vivo, human; conditions: tamoxifen 10 mg/kg, peritumoral, 3 times/week, 6 weeks, n = 5
Method: as §1

surface nucleolin [5] = test: Complex of HB-19/Btn with surface nucleolin, HUVECs, avidin-agarose and immunoblot; format: binding, human; conditions: 45 min, 20°C, 0-12 µM HB-19/Btn
Method: Figure 3 Specific binding and entry of HB-19 in endothelial cells. (A) HB-19/Btn forms a stable complex with nucleolin expressed on the surface of HUVECs. Cells were incubated (45 min, 20°C) with 0, 1, 2, 4, 8 and 12 µM of HB-19/Btn before preparation of surface/cytoplasmic and nuclear extracts and recovery of surface nucleolin from the surface/cytoplasmic extracts as in Figure 2A. Material extracted from 2×10^7 and 2×10^6 cells was analyzed in panels Surface and Surface/Cytoplasm or Nucleus, respectively. Immunoblotting was with the anti-nucleolin mAb D3. (B) The specific binding of HB-19/Btn to HUVECs. The binding of 1 µM HB-19/Btn was studied at 4 °C by FACScan analysis. To show the specificity of binding, the reaction was carried out in the absence or presence of 50 µM HB-19, F3, or 9Arg peptides. The ordinate gives the relative cell number, whereas the abscissa gives the relative fluorescence intensity. (C) HB-19 entry in HUVECs. Cells were incubated with 5 µM of HB-19/Btn (1 hour, 37°C) before fixation in PFA (for surface binding) or PFA-Triton (for entry), respectively. […]
Cells were passaged in DMEM culture medium containing 10% FCS in 75 cm^2 flasks. […] The purified surface nucleolin was eluted in the electrophoresis sample buffer containing SDS and analyzed by SDS–polyacrylamide gel electrophoresis (PAGE).

surface nucleolin [6] = test: Complex of HB-19/Btn with surface nucleolin, MDA-MB-231 cells, avidin-agarose and immunoblot; format: binding, human; conditions: 45 min, 20°C, 0-12 µM HB-19/Btn
Method: Figure 2 HB-19 binds nucleolin expressed on the surface of tumor cells and causes reduction of cytoplasmic/surface but not nuclear nucleolin. (A) HB-19/Btn forms a stable complex with nucleolin expressed on the surface of cells. MDA-MB-231 cells were incubated (45 min, 20°C) with 0, 1, 2, 4, 8 and 12 µM of HB-19/Btn before preparation of surface/cytoplasmic (i.e., nucleus-free) and nuclear extracts, [28]. Samples of surface nucleolin (purified using surface/cytoplasmic extracts from 2×10^7 cells) and crude surface/cytoplasmic and nuclear extracts (from 2×10^6 cells) were analyzed by immunoblotting for the detection of nucleolin using mAb D3. (B) Specific reduction of surface/cytoplasmic nucleolin in HB-19 treated cells. […] Material from 2×10^6 cells (Untreated or HB-19 treated cells as indicated − or + signs, respectively) was analyzed by immunoblotting for the detection of nucleolin. […] The intensity of nucleolin protein bands quantified by using the NIH image software indicated 75% and 93% reduction of surface/cytoplasmic nucleolin in HB-19 treated cells at 24 and 48 hours, respectively, compared to the corresponding untreated cells. […] MDA-MB-231 cells cultured in the absence (Control Cells) or presence of 10 µM of HB-19 for 48 hours (HB-19 Treated Cells) were fixed in PFA-Triton and processed for fluorescence microscopy. […]

tumor cells = conditions: cited from earlier work
Method: (§2) Previously, guanosine-rich phosphodiester oligonucleotides (referred to as GROs) and endostatin have been reported to exert antitumoral and antiangiogenic activity, respectively, through interaction with surface nucleolin [21], [41], [42]. […] At 20°C, GRO ...

nuclear nucleolin = conditions: cited from earlier work
Method: as §2

[7] = test system: cells (surface nucleolin); conditions: cited from earlier work
From the text: The importance of cell-surface nucleolin in cancer biology is highlighted by many studies showing that ligands of nucleolin play critical role in tumorigenesis and angiogenesis, [16]. For example, among surface nucleolin binding growth factors: midkine and PTN can transform cells, whereas on endothelial cells they exert both mitogenic and angiogenic effect. Laminin-1 that induces differentiation of cells binds surface nucleolin, while urokinase that is implicated in mechanisms regulating pericellular proteolysis, cell-surface adhesion, and mitogenesis binds and is co-internaliz ... || Previously, guanosine-rich phosphodiester oligonucleotides (referred to as GROs) and endostatin have been reported to exert antitumoral and antiangiogenic activity, respectively, through interaction with surface nucleolin [21], [41], [42]. […] At 20°C, GRO ...

nucleolin = conditions: cited from earlier work
From the text: HB-19 presents pentavalently the tripeptide Kψ(CH2N)PR in which the reduced peptide bond provides high stability against serum proteases (Figure 1). HB-19 forms a stable complex with the cell-surface expressed nucleolin and is internalized by an active process. This le ... || The interaction of HB-19 with surface nucleolin was investigated using human breast cancer MDA-MB-231 tumor cells and human umbilical vein endothelial cells (HUVECs). […] Similarly, HB-19/Btn binds and forms a stable complex with surface nucleolin in a dose-dependent manner in both types of cell ... || Previously, guanosine-rich phosphodiester oligonucleotides (referred to as GROs) and endostatin have been reported to exert antitumoral and antiangiogenic activity, respectively, through interaction with surface nucleolin [21], [41], [42]. […] At 20°C, GRO ... || (+ 1 further places)

- reduction in the number of lymphocytes ([3]; 5-FU 40 mg/kg, intraperitoneal): 55%
- Eosinophils ([3]; HB-19 5 mg/kg or 5-FU 40 mg/kg i.p., mean ± SD, n = 10, untreated 0.01±0.02): 0.05±0.04 ×10^3/µl
- Basophils ([3]; HB-19 5 mg/kg or 5-FU 40 mg/kg i.p., mean ± SD, n = 10, untreated 0.10±0.06): 0.10±0.04 ×10^3/µl
- Monocytes ([3]; HB-19 5 mg/kg or 5-FU 40 mg/kg i.p., mean ± SD, n = 10, untreated 0.20±0.09): 0.22±0.09 ×10^3/µl
- Neutrophils ([3]; HB-19 5 mg/kg or 5-FU 40 mg/kg i.p., mean ± SD, n = 10, untreated 0.89±0.39, 5-FU p<0.05): 0.53±0.15 * ×10^3/µl
- Lymphocytes ([3]; HB-19 5 mg/kg or 5-FU 40 mg/kg i.p., mean ± SD, n = 10, untreated 1.84±0.78, 5-FU p<0.01): 0.83±0.22 ** ×10^3/µl
- Leukocytes ([3]; HB-19 5 mg/kg or 5-FU 40 mg/kg i.p., mean ± SD, n = 10, untreated 3.05±1.29, 5-FU p<0.05): 1.73±0.37 * ×10^3/µl
- Erythrocytes ([3]; HB-19 5 mg/kg or 5-FU 40 mg/kg i.p., mean ± SD, n = 10, untreated 8.73±0.26, 5-FU p<0.0001): 7.60±0.30*** ×10^6/µl
- Platelets ([3]; HB-19 5 mg/kg or 5-FU 40 mg/kg i.p., mean ± SD, n = 10, untreated 1041±91): 1042±59 ×10^3/µl
Molecule: O=c1[nH]cc(F)c(=O)[nH]1 [5-FU, 5-fluouracil]
- inhibition of tumor growth [1]: 66%
- inhibition of tumor vascularization [2]: significantly inhibited tumor vascularization
- leucopenia ([3]; 5-FU 40 mg/kg, intraperitoneal): toxic causing a significant degree of leucopenia

Molecule: CC/C(=C(\c1ccccc1)c1ccc(OCCN(C)C)cc1)c1ccccc1 [tamoxifen, reference compound]
- reduction of tumor mass [4]: 80%

- concentration of maximum binding to surface nucleolin (surface nucleolin [5]): 8 to 12 µM
Molecule: H2NLys-Lys-Lys-Gly-Pro-Lys-Glu-Lys-βAla-Lys(Btn)-βAlaCONH2 [HB-19/Btn, biotinylated HB-19 for recovery of surface nucleolin]
- concentration of maximum binding to surface nucleolin (surface nucleolin [6]): 8 to 12 µM

Molecule: endostatin
- direct effect on tumor cell growth (tumor cells): does not directly affect tumor cell growth
- phosphorylation of nuclear nucleolin (nuclear nucleolin): inhibits phosphorylation of nuclear nucleolin
- internalization [7]: binds nucleolin on the surface of endothelial cells before translocation to the nucleus
- heparan sulfate proteoglycan requirement of binding to surface nucleolin (nucleolin): endostatin but not HB-19 binding to surface nucleolin requires heparan sulfate proteoglycans
